{"source": "patent US4883796A", "about": "“Oxime ethers of 2,6-dioxabicyclo(3.3.0)octanones, and compositions and methods for treatment of a cardiac disease or circulatory with them” (Heinrich Mack Nachf., priority 1987, dated 1989)", "key": {"[1]": {"assay": "Reduction of the arterial mean pressure in narcotised rabbits, i.d.", "format": "in vivo", "details": "Oryctolagus cuniculus, intraduodenal, read-out: ED30 (mmHg), reduction of the arterial mean pressure", "protocol": "Reduction of the arterial mean pressure in narcotised rabbits.\nThe substance was administered i.d."}, "[2]": {"assay": "Influence on systolic arterial pressure and heart rate of conscious normotensive beagle dogs, perorally", "format": "in vivo", "details": "10.0 mg/kg perorally; for HR (heart rate): 0 h value 88 ± 3; for SAP (systolic arterial pressure): 0 h value 134 ± 3", "protocol": "Influence on the systolic arterial pressure (SAP) and the heart rate\n(HR) of concious normotensive beagle dogs. Substance was administered"}, "[3]": {"test_system": "Lypressin-induced T-wave elevation in the ECG", "assay": "Influence on the Lypressin-induced T-wave elevation in the ECG of narcotised rats", "format": "in vivo", "protocol": "Influence on the T-wave elevation in the ECG of narcotised\nrats, which was induced by intravenous bolus injection of\nLypressin. The substances were administered perorally 15\nminutes and at various times before the Lypressin injection"}, "[4]": {"assay": "orientating toxicity, mice, perorally", "details": "mouse, in vivo, po, read-out: dose withstood without clinical symptoms and without fatalities"}, "isolated aorta strips [5]": {"test_system": "isolated aorta strips", "assay": "inhibition of potassium chloride-induced contractions on isolated aorta strips, rabbit", "format": "cell-based", "details": "Oryctolagus cuniculus, read-out: ED50, inhibition of potassium chloride-induced contractions"}, "isolated aorta strips [6]": {"test_system": "isolated aorta strips", "assay": "inhibition of potassium chloride-induced contractions on isolated aorta strips, rat", "format": "cell-based", "details": "read-out: ED50, inhibition of potassium chloride-induced contractions"}, "Isoprenaline tachycardia": {"test_system": "Isoprenaline tachycardia", "assay": "Inhibition of Isoprenaline tachycardia in narcotised, despinalised rats", "format": "in vivo", "details": "Rattus norvegicus, prophylactic", "excerpt": "Inhibition of Isoprenaline tachycardia in narcotised,\ndespinalised rats after prophylactic, intravenous or\nintraduodenal application"}}}
{"smiles": "CC(C)NCC(O)CON=C1CO[C@H]2[C@@H]1OC[C@H]2O[N+](=O)[O-]", "note": "(stereo partly drawn) [Example 1, 4-(2-Hydroxy-3-isopropylamino-propyl)-oximino-2,6-dioxabicyclo[3.3.0]octan-8-endo-ol-nitrate]", "values": [{"measurement": "ED (30 mmHg)", "setting": "[1]", "result": 24.2, "unit": "mg/kg"}, {"measurement": "HR changes", "setting": "[2]; 0.5 h", "result": "-15 ± 3", "unit": "Schl/M"}, {"measurement": "SAP changes", "setting": "[2]; 0.5 h", "result": "-36 ± 2", "unit": "mmHg"}, {"measurement": "HR (heart rate)", "setting": "[2]; 0.5 h", "result": "73 ± 3", "unit": "Schl/M"}, {"measurement": "SAP (systolic arterial pressure)", "setting": "[2]; 0.5 h", "result": "98 ± 3", "unit": "mmHg"}, {"measurement": "HR changes", "setting": "[2]; 1 h", "result": "-16 ± 4", "unit": "Schl/M"}, {"measurement": "SAP changes", "setting": "[2]; 1 h", "result": "-32 ± 2", "unit": "mmHg"}, {"measurement": "HR (heart rate)", "setting": "[2]; 1 h", "result": "72 ± 5", "unit": "Schl/M"}, {"measurement": "SAP (systolic arterial pressure)", "setting": "[2]; 1 h", "result": "102 ± 4", "unit": "mmHg"}, {"measurement": "HR changes", "setting": "[2]; 2 h", "result": "-14 ± 2", "unit": "Schl/M"}, {"measurement": "SAP changes", "setting": "[2]; 2 h", "result": "-20 ± 1", "unit": "mmHg"}, {"measurement": "HR (heart rate)", "setting": "[2]; 2 h", "result": "74 ± 6", "unit": "Schl/M"}, {"measurement": "SAP (systolic arterial pressure)", "setting": "[2]; 2 h", "result": "114 ± 3", "unit": "mmHg"}, {"measurement": "HR changes", "setting": "[2]; 3 h", "result": "-10 ± 3", "unit": "Schl/M"}, {"measurement": "SAP changes", "setting": "[2]; 3 h", "result": "-16 ± 2", "unit": "mmHg"}, {"measurement": "HR (heart rate)", "setting": "[2]; 3 h", "result": "78 ± 4", "unit": "Schl/M"}, {"measurement": "SAP (systolic arterial pressure)", "setting": "[2]; 3 h", "result": "118 ± 3", "unit": "mmHg"}, {"measurement": "HR changes", "setting": "[2]; 4 h", "result": "-9 ± 2", "unit": "Schl/M"}, {"measurement": "SAP changes", "setting": "[2]; 4 h", "result": "-19 ± 3", "unit": "mmHg"}, {"measurement": "HR (heart rate)", "setting": "[2]; 4 h", "result": "79 ± 5", "unit": "Schl/M"}, {"measurement": "SAP (systolic arterial pressure)", "setting": "[2]; 4 h", "result": "115 ± 3", "unit": "mmHg"}, {"measurement": "ED50", "setting": "[3]; Rattus norvegicus, po, 0.25 h, perorally 15 minutes before Lypressin", "result": 53.8, "unit": "mg/kg"}, {"measurement": "Length of action at ED50-Dose", "setting": "[3]; perorally", "result": 240, "unit": "min"}, {"measurement": "NOAEL", "setting": "[4]", "result": 500, "unit": "mg/kg"}, {"measurement": "IC50", "setting": "isolated aorta strips [5]", "result": 5.9, "unit": "µM"}, {"measurement": "IC50", "setting": "isolated aorta strips [6]", "result": 24, "unit": "µM"}, {"measurement": "ED50", "setting": "Isoprenaline tachycardia; iv", "result": 11, "unit": "mg/kg"}, {"measurement": "ED50", "setting": "Isoprenaline tachycardia; i.d.", "result": 82.6, "unit": "mg/kg"}]}
